Data taken from patent publication US20140163061A1, “Methods For Reducing Blood Pressure” (FibroGen, Inc., priority 2008, published 2014).

Tested on: human subjects with chronic kidney disease
Experiment: Blood pressure in human CKD subjects over a four week period, weekly readings, Example 6
Format: in vivo
Description: Hypertension is a common condition in patients with chronic kidney disease. (Agarwal et al. (2005) Hypertension 46:514-520.) The effect of a compound of the present invention on blood pressure in anemic and non-anemic human subjects with advanced stage chronic kidney disease was examined. All study subjects had chronic kidney disease (CKD), defined as having a glomerular filtration rate (GFR)<59 ml/min. Some of these CKD subjects also had anemia, defined as having hemoglobin (Hb) levels<11 g/dL. Subjects were orally administered compound A or a placebo two or three times per week for four weeks. Blood pressure readings (i.e. systolic, diastolic, and mean arterial pressure) were taken at various times with a sphygmomanometer according to standard assessments. In another series of experiments, the effects of a medicament of the present invention on blood pressure in anemic and non-anemic subjects with chronic kidney disease were determined over a four week period. All subjects were orally administered compound A or a placebo two or three-times per week for four weeks and blood pressure readings were taken weekly. Table 6, Table 7, and Table 8 below show weekly changes in mean arterial pressure (MAP), systolic blood pressure (SBP), and diastolic blood pressure (DBP) following oral administration of compound A to human CKD subjects.

Cc1nc(C(=O)NCC(=O)O)c(O)c2ccc(Oc3ccccc3)cc12 [A, [(4-hydroxy-1-methyl-7-phenoxy-isoquinoline-3-carbonyl)-amino]-acetic acid]
Mean change from Baseline Diastolic BP (mmHg) (All Subjects, Week 1): −3.66 mmHg | Mean change from Baseline MAP (mmHg) (All Subjects, Week 1): −4.28 mmHg | Mean change from Baseline Systolic BP (mmHg) (All Subjects, Week 1): −5.45 mmHg | Mean change from Baseline Diastolic BP (mmHg) (All Subjects, Week 2): −3.37 mmHg | Mean change from Baseline MAP (mmHg) (All Subjects, Week 2): −5.44 mmHg | Mean change from Baseline Systolic BP (mmHg) (All Subjects, Week 2): −9.47 mmHg | Mean change from Baseline Diastolic BP (mmHg) (All Subjects, Week 3): −1.53 mmHg | Mean change from Baseline MAP (mmHg) (All Subjects, Week 3): −4.03 mmHg | Mean change from Baseline Systolic BP (mmHg) (All Subjects, Week 3): −8.97 mmHg | Mean change from Baseline Diastolic BP (mmHg) (All Subjects, Week 4): −1.54 mmHg | Mean change from Baseline MAP (mmHg) (All Subjects, Week 4): −2.85 mmHg | Mean change from Baseline Systolic BP (mmHg) (All Subjects, Week 4): −5.54 mmHg | Mean change from Baseline Diastolic BP (mmHg) (Anemic, Week 1): −4.43 mmHg | Mean change from Baseline MAP (mmHg) (Anemic, Week 1): −4.57 mmHg | Mean change from Baseline Systolic BP (mmHg) (Anemic, Week 1): −4.80 mmHg | Mean change from Baseline Diastolic BP (mmHg) (Anemic, Week 2): −3.77 mmHg | Mean change from Baseline MAP (mmHg) (Anemic, Week 2): −6.13 mmHg | Mean change from Baseline Systolic BP (mmHg) (Anemic, Week 2): −10.77 mmHg | Mean change from Baseline Diastolic BP (mmHg) (Anemic, Week 3): −2.50 mmHg | Mean change from Baseline MAP (mmHg) (Anemic, Week 3): −5.47 mmHg | Mean change from Baseline Systolic BP (mmHg) (Anemic, Week 3): −11.40 mmHg | Mean change from Baseline Diastolic BP (mmHg) (Anemic, Week 4): −1.13 mmHg | Mean change from Baseline MAP (mmHg) (Anemic, Week 4): −3.08 mmHg | Mean change from Baseline Systolic BP (mmHg) (Anemic, Week 4): −7.25 mmHg | Mean change from Baseline Diastolic BP (mmHg) (Non-Anemic, Week 1): −2.00 mmHg | Mean change from Baseline MAP (mmHg) (Non-Anemic, Week 1): −3.67 mmHg | Mean change from Baseline Systolic BP (mmHg) (Non-Anemic, Week 1): −6.86 mmHg | Mean change from Baseline Diastolic BP (mmHg) (Non-Anemic, Week 2): −2.50 mmHg | Mean change from Baseline MAP (mmHg) (Non-Anemic, Week 2): −3.95 mmHg | Mean change from Baseline Systolic BP (mmHg) (Non-Anemic, Week 2): −6.67 mmHg | Mean change from Baseline Diastolic BP (mmHg) (Non-Anemic, Week 3): 0.40 mmHg | Mean change from Baseline MAP (mmHg) (Non-Anemic, Week 3): −1.14 mmHg | Mean change from Baseline Systolic BP (mmHg) (Non-Anemic, Week 3): −4.10 mmHg | Mean change from Baseline Diastolic BP (mmHg) (Non-Anemic, Week 4): −2.20 mmHg | Mean change from Baseline MAP (mmHg) (Non-Anemic, Week 4): −2.48 mmHg | Mean change from Baseline Systolic BP (mmHg) (Non-Anemic, Week 4): −2.80 mmHg
